In data set [1] the test system is promastigotes of L. (L.) amazonensis. The arrangement: method as in earlier work. To be noted: cited from earlier work.
Data set [2] in a line: Macrophage cytotoxicity screening (MTT assay). To be noted: human, THP1 cells differentiated to macrophages. It counts as cell-based. As to the method:
The cytotoxicity of EGCG, EGC, GCG and GC was evaluated in a human monocytic cell line derived from an acute monocytic leukemia patient (THP1). The cells (3 x 10^4/150 µL) were first differentiated to macrophages with 10 ng/mL of phorbol myristate acetate for 24 h at 37 °C in a 5% CO2 95% air mixture. […] The controls were incubated with RPMI 1640 medium (Gibco, Grand Island, NY, USA). The viability of the macrophages was determined by the MTT assay (Nacalai tesque, Kyoto, Japan). Briefly, 50 μL of MTT (2 mg/mL) was added to each well and, after 4 h of incubation at 37 °C, the reaction was stopped dissolving the formazan crystals with 100 μL/well of dimethyl sulfoxide (DMSO). The relative amount of formazan produced by viable macrophages was determined using a spectrophotometer at 570 nm. The percentage of viable cells was calculated according to the formula: OD treated culture–OD blank x 100/OD control–OD blank as was described previously. The CC50 was calculated for each compound as the concentration of compound that reduces cell growth by 50%.
(§1) The GraphPad Prism 5.0 software (GraphPad Software Inc., San Diego, CA, USA) was employed to carry out calculations of the IC50 and CC50 values by a nonlinear regression. Multiple comparisons of lesions’ sizes between groups were made with a one-way analysis of variance (ANOVA) followed by Tukey test. The statistical analysis of the parasite burden data obtained by the limiting dilution assay was done using ELIDA software, which analyses data through the Poisson distribution and by the X^2 test. p < 0.05 was considered significant. The data are representative of two separate experiments in vivo.
(Tetrazolium dyes change colour on reduction, which living cells bring about.)

The subject of data set [3] is intracellular amastigotes of L. (L.) amazonensis. Kind of data set: In vitro antiamastigote activity in infected THP1-derived macrophages. It counts as cell-based, Leishmania (Leishmania) amazonensis. The settings on record: for SI (selectivity index, ratio CC50 THP1/IC50 Leishmania): CC50 THP1/IC50 intracellular amastigotes; for SI (selectivity index, ratio CC50 THP1/IC50 Leishmania) / IC50: 48 h; for IC50: Leishmania amazonensis, Macrophage; for IC50 / Intracellular Amastigotes IC50: macrophages infected with L. (L.) amazonensis, 48 h of treatment, 34 °C. On the procedure:
THP1 cells (2 × 10^5/mL) were differentiated to macrophages with 10 ng/mL of phorbol myristate acetate and placed in Lab-Tek eight chamber slides for 24 h at 37 °C in a 5% CO2 95% air mixture. Adherent macrophages were infected with L. (L.) amazonensis at a ratio of four parasites per macrophage and incubated at 34 °C in a 5% CO2 95% air mixture during 24 h. After infection, the cells were washed with pre-warmed PBS to remove free parasites. A new medium with different concentrations of EGCG, EGC, GCG and GC (2.3 to 130 µg/mL) and Gl (2.5 to 80 µg Sb^v/mL) was added to each well. The positive controls were infected cells cultured under the presence of complete RPMI-1640 medium. The chambers were returned to the CO2 incubator for an additional 48 h at 34 °C, 5% CO2 [17]. The cells were stained with Diff Quik (Biopur S.R.L., Rosario, Argentina), and the results were expressed as the concentration of compound to inhibit the 50% of the growth (IC50) of the intracellular amastigotes.
as §1

In data set [4] the test system is promastigotes of L. (V.) braziliensis. More on the design: method as in earlier work. The settings on record: cited from earlier work.
Another data set concerns L. (L.) donovani. The arrangement: method as in PMID 16569852. The settings on record: cited from earlier work.
Another data set concerns L. (L.) amazonensis. As to the kind of experiment: In vivo cutaneous leishmaniasis model, infected ear dermis of BALB/c mice. The settings on record: 18 days; for Parasite burden inhibition: once a day, six times a week, from week six postinfection, vs control group; for Lesion size: week 10, vs control group, p < 0.05. On the procedure: Female BALB/c mice of six weeks old (weight, 20 to 25 g) were randomly separated into three groups of five animals and were inoculated by intradermal via in their right ear with 5 × 10^3 (20 µL) infective promastigotes of L. (L.) amazonensis (late log phase of growth). The animals were housed in groups of five in metal cages under a controlled environmental condition (12:12 h light/dark cycle and 23 °C room temperature) with food and water ad libitum.
At week six postinfection, mice received the treatments as follow: group 1, treated with EGCG in USP hydrophilic ointment (15%), group 2, treated with 120 mg Sb^v/kg/d of Gl administered by intraperitoneal route, and group 3, control mice (without treatment). EGCG was uniformly mixed in USP hydrophilic cream (Yoshida Pharmaceutical Co., Saitama, Japan) (15% w/w) and was topically applied (20 mg/lesion). EGCG ointment was prepared daily. The treatments were given during 18 days, once a day, six times a week, until the end of the treatments (9th week). The efficacy of treatments was determined by measuring the lesions’ sizes (mm^2) with a digital caliper weekly (150 mm; Digimess) and by quantifying the parasite burden with the limit dilution assay as was described previously.
as §1

For data set [5], the system named is intracellular amastigotes of L. (L.) amazonensis. The arrangement: method as in PMID 22735546. To be noted: infected macrophage cultures incubated at 37 °C; cited from earlier work.
Data set [6] deals with intracellular amastigotes of L. (V.) braziliensis. The arrangement: method as in PMID 25144225. The settings on record: infected macrophage cultures incubated at 37 °C; cited from earlier work.
The subject of another data set is L. (V.) braziliensis. The arrangement: method as in PMID 24106750, PMID 22735546. The settings on record: EGCG oral treatment, BALB/c mice; cited from earlier work.
Setting [7] is: intraperitoneal 120 mg Sb^v/kg/d.

Converted amounts (≈) assume the structure as drawn.

Broadly, the CC50 is the concentration at which the toxic effect on the cells reaches its halfway point. One may read the IC50 as the concentration at which inhibition is half-maximal. Lower therefore signals greater potency. As to `Oc1cc(O)c2c(c1)O[C@H](c1cc(O)c(O)c(O)c1)[C@H](O)C2` [EGC, (−)-epigallocatechin], in data set [1], the “Leishmanicidal activity / growth of promastigotes” value (from here on “Leishmanicidal activity / growth”) is on record as “leishmanicidal activity”. This molecule displayed a CC50 at 48 h in [2] of 121 ± 20 µg/mL (≈ 394 µM). In data set [3], the “SI (selectivity index, ratio CC50 THP1/IC50 Leishmania)” value is reported as at least 2.7; the IC50 is below 59.6 µg/mL; the “Intracellular Amastigotes IC50” value is at least 44.3 µg/mL. In addition, the “SI (selectivity index, ratio CC50 THP1/IC50 Leishmania)” value in [3] (listed as (−)-epigallocatechin) is above 1. For the same molecule, the “Leishmanicidal activity / growth” value in data set [4] was “leishmanicidal activity”.
As for `O=C(O[C@@H]1Cc2c(O)cc(O)cc2O[C@H]1c1ccc(O)c(O)c1)c1cc(O)c(O)c(O)c1` [(−)-catechin gallate], the “Leishmanicidal activity / growth” value in [1] and in [4] was “did not inhibit the growth” each time.
As to `Oc1cc(O)c2c(c1)O[C@@H](c1cc(O)c(O)c(O)c1)[C@H](O)C2` [GC, (−)-gallocatechin], the “Leishmanicidal activity / growth” value in [1] was “leishmanicidal activity”. In [2], this molecule showed a half-maximal cytotoxic concentration (CC50) at 48 h of 115 ± 37.1 µg/mL (≈ 376 µM). In addition, in data set [3], the “SI (selectivity index, ratio CC50 THP1/IC50 Leishmania)” value is given as 1.2 and the IC50 was 93.5 ± 5 µg/mL (≈ 305 µM). Also, the “Leishmanicidal activity / growth” value in data set [4] is given as “leishmanicidal activity”.
For `Oc1cc(O)c2c(c1)O[C@H](c1ccc(O)c(O)c1)[C@H](O)C2` [(−)-epicatechin], the “Leishmanicidal activity / growth” value in data set [1] and in data set [4] was “did not inhibit the growth” each time.
Take `O=C(O[C@@H]1Cc2c(O)cc(O)cc2O[C@H]1c1cc(O)c(O)c(O)c1)c1cc(O)c(O)c(O)c1` [GCG, (−)-gallocatechin gallate]: the “Leishmanicidal activity / growth” value in [1] is “leishmanicidal activity”. The midpoint of cytotoxicity in [2], the CC50 at 48 h, lay at 94.9 ± 11.8 µg/mL (≈ 207 µM). The “IC50 against L. (L.) donovani” value in the data set with L. (L.) donovani was 8.9 µg/mL (≈ 19.4 µM). Moreover, in data set [3], the “SI (selectivity index, ratio CC50 THP1/IC50 Leishmania)” value is 1.4 and the 50% inhibitory concentration (IC50) was 67.5 ± 9.5 µg/mL (≈ 147 µM). For the same molecule, the “Leishmanicidal activity / growth” value in [4] was “leishmanicidal activity”.
Take `Oc1cc(O)c2c(c1)O[C@H](c1ccc(O)c(O)c1)[C@@H](O)C2` [(+)-catechin]: the “Leishmanicidal activity / growth” value in [1] and in data set [4] was “did not inhibit the growth” each time.
Turning to `O=C(O[C@@H]1Cc2c(O)cc(O)cc2O[C@@H]1c1cc(O)c(O)c(O)c1)c1cc(O)c(O)c(O)c1` [EGCG, (−)-Epigallocatechin gallate], the “Leishmanicidal activity / growth” value in data set [1] and in [4] was “leishmanicidal activity” in each case. Further, the Parasite burden inhibition with L. (L.) amazonensis (topical 15% EGCG in USP hydrophilic ointment, 20 mg/lesion) was 80.4%; in the data set with L. (V.) braziliensis, 92.1%. Moreover, the Lesion size entry with L. (L.) amazonensis (topical 15% EGCG) is on record as “significant reduction of the lesion size”. Moreover, the midpoint of cytotoxicity in data set [2], the CC50 at 48 h, lay at 88.9 ± 21.9 µg/mL (≈ 194 µM). Also, the “IC50 against intracellular amastigotes” value in [5] is 0.74 µg/mL (≈ 1.61 µM); in data set [6], 1.57 µg/mL (≈ 3.43 µM). Also, the “IC50 against L. (L.) donovani” value with L. (L.) donovani is recorded as 19.1 µg/mL (≈ 41.7 µM). Further, the “SI (selectivity index, ratio CC50 THP1/IC50 Leishmania)” value in data set [3] is recorded as 1.5; in data set [3] (listed as (−)-Epigallocatechin gallate), above 1. Moreover, the IC50 in data set [3] is below 59.6 µg/mL. Further, the “Intracellular Amastigotes IC50” value in [3] is given as 59.6 ± 9.3 µg/mL.
In the case of “Meglumine antimoniate [reference compound]”, in the data set with L. (L.) amazonensis (setting [7]), the Parasite burden inhibition was found to be 85.1% and the Lesion size result is “reduced the lesion size”.

The values are drawn from publication PMC7180842, “Efficacy of Topical Treatment with (−)-Epigallocatechin Gallate, A Green Tea Catechin, in Mice with Cutaneous Leishmaniasis” (Molecules, 2020).
